Test results from US10561616B2, “Sustained release dosage forms for a JAK1 inhibitor” (Incyte Corporation, priority 2013, dated 2020).

What was measured:
JAK1 (IL-6) = test: PK derived JAK1 (IL-6) inhibition by dose regimen
Description: (§1) It is believed that this efficacy/side-effect profile may be due to the QD dose achieving maximal JAK1 signaling (tied to efficacy) with low JAK2 inhibition at the trough, as JAK2 signaling is tied to hematopoiesis. This hypothesis is supported by the PK derived JAK1 (IL-6) and JAK2 (TPO) inhibition data for the compound of Formula at various doses (Table 7).

JAK2 (TPO) = test: PK derived JAK2 (TPO) inhibition by dose regimen
Description: as §1

[1] = system: patients with plaque psoriasis; test: Placebo controlled study in plaque psoriasis, 28 days (sPGA, PASI 50); type: in vivo, human
Experimental: A double-blind (sponsor unblinded), randomized, placebo controlled study was conducted in approximately 48 subjects treated for 28 days. Eligibility requirements included: active plaque psoriasis for at least 6 months at screening; body surface area (BSA) of plaque psoriasis of ≥5%; psoriasis area and severity index (PASI) score of ≥5; static physician's global assessment (sPGA) score of ≥3; inadequate response to topical therapies; innovative design allowing rapid progress between doses, with conservative safety assessment. […] Once the 4th subject (block of 3 active 1 PBO) completed 28 days administration without a Grade 3 or higher AE, the next group of 12 subjects initiated treatment with the next highest dose; while the first 4 subjects in this group are treated for 28 days, the 1st group is filled 60 subjects with moderate to severe psoriasis were randomized. […] A sequential method of recruitment was used, increasing from the lowest dose to the highest, each after the completion of 28 days for the first four subjects in the previous dose. The results at 28 days are show in Table 8 (PASI 50 is Psoriasis Area and Severity Index). […] The 5 mg tofacitinib dose is the approved dosage level for RA for safety reasons in the US.

[2] = biological target: T1, human JAK1 (a.a. 837-1142) (Homo sapiens, UniProt P23458); test: In vitro JAK kinase assay (HTRF), JAK1; type: biochemical; details: measured at 1 mM ATP
T1 construct: human JAK1 (a.a. 837-1142); His tag (N); made in house; host or cells: insect cells (baculovirus)
T1 sequence (P23458 849-1154): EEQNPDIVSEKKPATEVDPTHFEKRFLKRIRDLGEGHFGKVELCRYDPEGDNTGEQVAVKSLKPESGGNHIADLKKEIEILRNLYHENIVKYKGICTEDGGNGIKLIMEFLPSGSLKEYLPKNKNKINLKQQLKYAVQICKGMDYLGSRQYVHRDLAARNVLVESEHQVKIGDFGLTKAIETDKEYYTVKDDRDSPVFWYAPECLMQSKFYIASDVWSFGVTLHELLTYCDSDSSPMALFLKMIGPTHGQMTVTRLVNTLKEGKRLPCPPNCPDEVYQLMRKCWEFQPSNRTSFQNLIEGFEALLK
Experimental: The compound of Formula I herein was tested for inhibitory activity of JAK targets according to the following in vitro assay described in Park et al., Analytical Biochemistry 1999, 269, 94-104. The catalytic domains of human JAK1 (a.a. 837-1142) and JAK2 (a.a. 828-1132) with an N-terminal His tag were expressed using baculovirus in insect cells and purified. The catalytic activity of JAK1 and JAK2 was assayed by measuring the phosphorylation of a biotinylated peptide. The phosphorylated peptide was detected by homogenous time resolved fluorescence (HTRF). IC50s of compounds were measured for each kinase in the 40 microL reactions that contain the enzyme, ATP and 500 nM peptide in 50 mM Tris (pH 7.8) buffer with 100 mM NaCl, 5 mM DTT, and 0.1 mg/mL (0.01%) BSA. For the 1 mM IC50 measurements, ATP concentration in the reactions was 1 mM. Reactions were carried out at room temperature for 1 hr and then stopped with 20 μL 45 mM EDTA, 300 nM SA-APC, 6 nM Eu-Py20 in assay buffer (Perkin Elmer, Boston, Mass.). Binding to the Europium labeled antibody took place for 40 minutes and HTRF signal was measured on a Fusion plate reader (Perkin Elmer, Boston, Mass.).

RA = details: 5 mg BID; 3 months; cited from earlier work
psoriasis = details: 5 mg; 12 weeks; cited from earlier work

Structure (SMILES): N#CCC1(n2cc(-c3ncnc4[nH]ccc34)cn2)CN(C2CCN(C(=O)c3ccnc(C(F)(F)F)c3F)CC2)C1 [compound of Formula I, {1-{1-[3-fluoro-2-(trifluoromethyl)isonicotinoyl]piperidin-4-yl}-3-[4-(7H-pyrrolo[2,3-d]pyrimidin-4-yl)-1H-pyrazol-1-yl]azetidin-3-yl}acetonitrile]
- Average IL-6 inhibition (JAK1 (IL-6); 100 mg BID): 44%
- Trough IL-6 inhibition (JAK1 (IL-6); 100 mg BID): 22%
- Average IL-6 inhibition (JAK1 (IL-6); 100 mg QD): 30%
- Trough IL-6 inhibition (JAK1 (IL-6); 100 mg QD): 7%
- Average IL-6 inhibition (JAK1 (IL-6); 200 mg BID): 64%
- Trough IL-6 inhibition (JAK1 (IL-6); 200 mg BID): 52%
- Average IL-6 inhibition (JAK1 (IL-6); 200 mg QD): 39%
- Trough IL-6 inhibition (JAK1 (IL-6); 200 mg QD): 11%
- Average IL-6 inhibition (JAK1 (IL-6); 300 mg QD): 47%
- Trough IL-6 inhibition (JAK1 (IL-6); 300 mg QD): 16%
- Average IL-6 inhibition (JAK1 (IL-6); 400 mg BID): 69%
- Trough IL-6 inhibition (JAK1 (IL-6); 400 mg BID): 56%
- Average IL-6 inhibition (JAK1 (IL-6); 600 mg QD): 61%
- Trough IL-6 inhibition (JAK1 (IL-6); 600 mg QD): 31%
- Average TPO inhibition (JAK2 (TPO); 100 mg BID): 11%
- Trough TPO inhibition (JAK2 (TPO); 100 mg BID): 2%
- Average TPO inhibition (JAK2 (TPO); 100 mg QD): 7%
- Trough TPO inhibition (JAK2 (TPO); 100 mg QD): <1%
- Average TPO inhibition (JAK2 (TPO); 200 mg BID): 24%
- Trough TPO inhibition (JAK2 (TPO); 200 mg BID): 13%
- Average TPO inhibition (JAK2 (TPO); 200 mg QD): 11%
- Trough TPO inhibition (JAK2 (TPO); 200 mg QD): <1%
- Average TPO inhibition (JAK2 (TPO); 300 mg QD): 18%
- Trough TPO inhibition (JAK2 (TPO); 300 mg QD): 1%
- Average TPO inhibition (JAK2 (TPO); 400 mg BID): 33%
- Trough TPO inhibition (JAK2 (TPO); 400 mg BID): 16%
- Average TPO inhibition (JAK2 (TPO); 600 mg QD): 36%
- Trough TPO inhibition (JAK2 (TPO); 600 mg QD): 4%
- % PASI 50 ([1]; 100 mg BID (as headed)): 22.2%
- % sPGA (clear or minimal) ([1]; 100 mg BID (as headed)): 11.1%
- Mean % change sPGA ([1]; 100 mg BID (as headed)): −22.2%
- % PASI 50 ([1]; 200 mg BID): 44.4%
- % sPGA (clear or minimal) ([1]; 200 mg BID): 33.3%
- Mean % change sPGA ([1]; 200 mg BID): −35.2%
- % PASI 50 ([1]; 200 mg QD): 66.7%
- % sPGA (clear or minimal) ([1]; 200 mg QD): 22.2%
- Mean % change sPGA ([1]; 200 mg QD): −29.4%
- % PASI 50 ([1]; 600 mg QD): 81.8%
- % sPGA (clear or minimal) ([1]; 600 mg QD): 45.5%
- Mean % change sPGA ([1]; 600 mg QD): −42.4%
- IC50 [2]: ≤ 5 nM

Structure (SMILES): C[C@@H]1CCN(C(=O)CC#N)C[C@@H]1N(C)c1ncnc2[nH]ccc12.O=C(O)CC(O)(CC(=O)O)C(=O)O [tofacitinib citrate]
- ACR20 (RA): 59%
- ACR50 (RA): 31%
- ACR70 (RA): 15%
- PASI 50 score (psoriasis): 65.3%
